Data published in ChEMBL document CHEMBL3137667, “[Drug-induced liver injury; fourteenth updated edition of the bibliographic database of liver injuries and related drugs]” (Gastroenterol Clin Biol, 2004).

Key:
[1] = human
[2] = Times to onset, minimal and maximal, observed in the indexed observations. [column 'DELAI' in source]; conditions: human
[3] = human; remark: listed apart in the source
[4] = human; remark: listed apart in the source
[5] = human, serum
[6] = human; remark: listed apart in the source
[7] = human; remark: listed apart in the source
[8] = Proposed mechanism(s) of liver damage. [column 'MEC' in source]; conditions: human
[9] = Highest frequency of acute liver toxicity observed during clinical trials, expressed as a percentage. [column '% AIGUE' in source]; conditions: human
[10] = Highest frequency of moderate liver toxicity observed during clinical trials, expressed as a percentage. [column '% BIOL' in source]; conditions: human
[11] = human; remark: listed apart in the source
[12] = human; remark: listed apart in the source
[13] = human, serum, 4383 h
[14] = human; remark: listed apart in the source
[15] = human, serum; remark: listed apart in the source
[16] = human; remark: listed apart in the source
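Throughout, for Hepatotoxicity (association with vascular disease): count of indexed literature references reporting vascular liver injury in humans, e.g. peliosis hepatitis, hepatic veno-occlusive disease or Budd-Chiari syndrome.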
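Throughout, for Hepatotoxicity (benign tumour): value is a count of indexed literature references citing a benign tumour confirmed by histopathology.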
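Throughout, for Hepatotoxicity (choleostasis): human cholestatic liver injury, shown by histopathology or by peak ALT or AST elevation over alkaline phosphatase ratio below 2, value counts indexed literature reports.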
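Throughout, for Hepatotoxicity (chronic liver disease): chronic liver injury confirmed by histopathology or persistently raised serum aminotransferase activity beyond 6 months, value given as the count of indexed literature references.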
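Throughout, for Hepatotoxicity (cirrhosis): value is a count of indexed literature references reporting cirrhosis confirmed by histopathology.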
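Throughout, for Hepatotoxicity (cytolytic): human cytolytic liver injury, shown by histopathology or by a ratio above 5 of peak ALT or AST elevation to alkaline phosphatase elevation, value counts indexed references.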
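Throughout, for Hepatotoxicity (granulomatous hepatitis): value is a count of indexed literature references reporting granulomatous liver disease confirmed by histopathology.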
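Throughout, for Hepatotoxicity (malignant tumour): malignant tumour confirmed by histopathology, value gives the count of indexed literature references reporting it.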
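Throughout, for Hepatotoxicity (severe hepatitis): human clinical data: severe hepatitis, meaning potentially life-threatening liver failure or clinically observed cases, the value counts how many indexed literature references report it.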
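Throughout, for Hepatotoxicity (steatosis): steatosis confirmed by histopathology, value is the count of indexed references.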

Compound: c1ccc2c(CCC3CCNCC3)c[nH]c2c1 [INDALPINE]
- Hepatotoxicity (benign tumour) [1]: 0
- Hepatotoxicity (time to onset) [2]: 25 days - 4 months
- Hepatotoxicity (cytolytic) [3]: 1
- Hepatotoxicity (granulomatous hepatitis) [4]: 0
- Hepatotoxicity (acute) [5]: 1
- Hepatotoxicity (malignant tumour) [6]: 0
- Hepatotoxicity (choleostasis) [7]: 1
- Hepatotoxicity (mechanism) [8]: Allergic
- Hepatotoxicity (acute) [9]: 0%
- Hepatotoxicity (moderate) [10]: 0%
- Hepatotoxicity (cirrhosis) [11]: 0
- Hepatotoxicity (association with vascular disease) [12]: 0
- Hepatotoxicity (chronic liver disease) [13]: 0
- Hepatotoxicity (steatosis) [14]: 1
- Hepatotoxicity (moderate) [15]: 1
- Hepatotoxicity (severe hepatitis) [16]: 0

Compound: CNC(=O)c1c(I)c(C(=O)NCC(=O)Nc2c(I)c(C(=O)O)c(I)c(C(=O)NCCO)c2I)c(I)c(N(C)C(C)=O)c1I [IOXAGLIC ACID]
- Hepatotoxicity (benign tumour) [1]: 0
- Hepatotoxicity (time to onset) [2]: 1 days
- Hepatotoxicity (cytolytic) [3]: 1
- Hepatotoxicity (granulomatous hepatitis) [4]: 0
- Hepatotoxicity (acute) [5]: 1
- Hepatotoxicity (malignant tumour) [6]: 0
- Hepatotoxicity (choleostasis) [7]: 0
- Hepatotoxicity (mechanism) [8]: Allergic
- Hepatotoxicity (acute) [9]: 0%
- Hepatotoxicity (moderate) [10]: 0%
- Hepatotoxicity (cirrhosis) [11]: 0
- Hepatotoxicity (association with vascular disease) [12]: 0
- Hepatotoxicity (chronic liver disease) [13]: 0
- Hepatotoxicity (steatosis) [14]: 0
- Hepatotoxicity (moderate) [15]: 0
- Hepatotoxicity (severe hepatitis) [16]: 0

Compound: CC1=C(/C=C/C(C)=C/C=C/C(C)=C\C(=O)O)C(C)(C)CCC1 [ISOTRETINOIN]
- Hepatotoxicity (benign tumour) [1]: 0
- Hepatotoxicity (time to onset) [2]: 4 months
- Hepatotoxicity (cytolytic) [3]: 1
- Hepatotoxicity (granulomatous hepatitis) [4]: 0
- Hepatotoxicity (acute) [5]: 3
- Hepatotoxicity (malignant tumour) [6]: 0
- Hepatotoxicity (choleostasis) [7]: 0
- Hepatotoxicity (mechanism) [8]: Dose-dependant
- Hepatotoxicity (acute) [9]: 8.8%
- Hepatotoxicity (moderate) [10]: 44.4%
- Hepatotoxicity (cirrhosis) [11]: 0
- Hepatotoxicity (association with vascular disease) [12]: 0
- Hepatotoxicity (chronic liver disease) [13]: 0
- Hepatotoxicity (steatosis) [14]: 1
- Hepatotoxicity (moderate) [15]: 35
- Hepatotoxicity (severe hepatitis) [16]: 0

Compound: CC(=O)CCC1C(=O)N(c2ccccc2)N(c2ccccc2)C1=O [KEBUZONE]
- Hepatotoxicity (benign tumour) [1]: 0
- Hepatotoxicity (time to onset) [2]: 1 week - 1 month
- Hepatotoxicity (cytolytic) [3]: 3
- Hepatotoxicity (granulomatous hepatitis) [4]: 0
- Hepatotoxicity (acute) [5]: 4
- Hepatotoxicity (malignant tumour) [6]: 0
- Hepatotoxicity (choleostasis) [7]: 3
- Hepatotoxicity (mechanism) [8]: Allergic
- Hepatotoxicity (acute) [9]: 2.7%
- Hepatotoxicity (moderate) [10]: 26.7%
- Hepatotoxicity (cirrhosis) [11]: 0
- Hepatotoxicity (association with vascular disease) [12]: 0
- Hepatotoxicity (chronic liver disease) [13]: 0
- Hepatotoxicity (steatosis) [14]: 0
- Hepatotoxicity (moderate) [15]: 1
- Hepatotoxicity (severe hepatitis) [16]: 0

Compound: CNCCCC12CCC(c3ccccc31)c1ccccc12 [MAPROTILINE]
- Hepatotoxicity (benign tumour) [1]: 0
- Hepatotoxicity (time to onset) [2]: 2 days - 4 years
- Hepatotoxicity (cytolytic) ([3]; Liver): 7
- Hepatotoxicity (granulomatous hepatitis) ([4]; Liver): 0
- Hepatotoxicity (acute) [5]: 8
- Hepatotoxicity (malignant tumour) [6]: 0
- Hepatotoxicity (choleostasis) ([7]; Liver): 4
- Hepatotoxicity (mechanism) ([8]; Liver): Dose-dependant
- Hepatotoxicity (acute) ([9]; Liver): 0%
- Hepatotoxicity (moderate) ([10]; Liver): 25%
- Hepatotoxicity (cirrhosis) [11]: 0
- Hepatotoxicity (association with vascular disease) [12]: 0
- Hepatotoxicity (chronic liver disease) [13]: 0
- Hepatotoxicity (steatosis) [14]: 0
- Hepatotoxicity (moderate) [15]: 5
- Hepatotoxicity (severe hepatitis) ([16]; Liver): 0

Compound: O=C1c2c(O)ccc(O)c2C(=O)c2c(NCCNCCO)ccc(NCCNCCO)c21 [MITOXANTRONE]
- Hepatotoxicity (benign tumour) [1]: 0
- Hepatotoxicity (time to onset) [2]: 4 days - 24 days
- Hepatotoxicity (cytolytic) [3]: 0
- Hepatotoxicity (granulomatous hepatitis) [4]: 0
- Hepatotoxicity (acute) [5]: 4
- Hepatotoxicity (malignant tumour) [6]: 0
- Hepatotoxicity (choleostasis) [7]: 0
- Hepatotoxicity (mechanism) [8]: Dose-dependant
- Hepatotoxicity (acute) [9]: 42.8%
- Hepatotoxicity (moderate) [10]: 80%
- Hepatotoxicity (cirrhosis) [11]: 0
- Hepatotoxicity (association with vascular disease) [12]: 0
- Hepatotoxicity (chronic liver disease) [13]: 0
- Hepatotoxicity (steatosis) [14]: 0
- Hepatotoxicity (moderate) [15]: 21
- Hepatotoxicity (severe hepatitis) [16]: 2

Compound: O=C1CC[C@@]2(O)[C@H]3Cc4ccc(O)c5c4[C@@]2(CCN3CC2CC2)[C@H]1O5 [NALTREXONE]
- Hepatotoxicity (benign tumour) [1]: 0
- Hepatotoxicity (time to onset) [2]: 1 month - 2 months
- Hepatotoxicity (cytolytic) [3]: 3
- Hepatotoxicity (granulomatous hepatitis) [4]: 0
- Hepatotoxicity (acute) [5]: 3
- Hepatotoxicity (malignant tumour) [6]: 0
- Hepatotoxicity (choleostasis) [7]: 0
- Hepatotoxicity (mechanism) [8]: Dose-dependant
- Hepatotoxicity (acute) ([9]; Liver): 0%
- Hepatotoxicity (moderate) ([10]; Liver): 20%
- Hepatotoxicity (cirrhosis) [11]: 0
- Hepatotoxicity (association with vascular disease) [12]: 0
- Hepatotoxicity (chronic liver disease) [13]: 0
- Hepatotoxicity (steatosis) [14]: 0
- Hepatotoxicity (moderate) [15]: 9
- Hepatotoxicity (severe hepatitis) ([16]; Liver): 0

Compound: Cc1ccnc2c1NC(=O)c1cccnc1N2C1CC1 [NEVIRAPINE]
- Hepatotoxicity (benign tumour) [1]: 0
- Hepatotoxicity (time to onset) [2]: 8 days - 3 years
- Hepatotoxicity (cytolytic) [3]: 29
- Hepatotoxicity (granulomatous hepatitis) [4]: 0
- Hepatotoxicity (acute) [5]: 49
- Hepatotoxicity (malignant tumour) [6]: 0
- Hepatotoxicity (choleostasis) [7]: 2
- Hepatotoxicity (mechanism) [8]: Allergic
- Hepatotoxicity (acute) [9]: 37.5%
- Hepatotoxicity (moderate) [10]: 47.1%
- Hepatotoxicity (cirrhosis) [11]: 0
- Hepatotoxicity (association with vascular disease) [12]: 0
- Hepatotoxicity (chronic liver disease) [13]: 0
- Hepatotoxicity (steatosis) [14]: 0
- Hepatotoxicity (moderate) [15]: 18
- Hepatotoxicity (severe hepatitis) [16]: 14

Compound: CC1(C)NC(=O)N(c2ccc([N+](=O)[O-])c(C(F)(F)F)c2)C1=O [NILUTAMIDE]
- Hepatotoxicity (benign tumour) [1]: 0
- Hepatotoxicity (time to onset) [2]: 1 month - 4 months
- Hepatotoxicity (cytolytic) ([3]; Liver): 4
- Hepatotoxicity (granulomatous hepatitis) ([4]; Liver): 0
- Hepatotoxicity (acute) [5]: 5
- Hepatotoxicity (malignant tumour) [6]: 0
- Hepatotoxicity (choleostasis) ([7]; Liver): 0
- Hepatotoxicity (mechanism) ([8]; Liver): Reactive metabolite
- Hepatotoxicity (acute) ([9]; Liver): 0%
- Hepatotoxicity (moderate) ([10]; Liver): 8%
- Hepatotoxicity (cirrhosis) [11]: 0
- Hepatotoxicity (association with vascular disease) [12]: 0
- Hepatotoxicity (chronic liver disease) [13]: 0
- Hepatotoxicity (steatosis) [14]: 0
- Hepatotoxicity (moderate) [15]: 5
- Hepatotoxicity (severe hepatitis) ([16]; Liver): 4

Compound: Cc1cc2c(s1)Nc1ccccc1N=C2N1CCN(C)CC1 [OLANZAPINE]
- Hepatotoxicity (benign tumour) [1]: 0
- Hepatotoxicity (time to onset) [2]: 13 days - 15 months
- Hepatotoxicity (cytolytic) [3]: 2
- Hepatotoxicity (granulomatous hepatitis) [4]: 0
- Hepatotoxicity (acute) [5]: 2
- Hepatotoxicity (malignant tumour) [6]: 0
- Hepatotoxicity (choleostasis) [7]: 1
- Hepatotoxicity (mechanism) [8]: Allergic, Dose-dependant
- Hepatotoxicity (acute) [9]: 0%
- Hepatotoxicity (moderate) [10]: 30%
- Hepatotoxicity (cirrhosis) [11]: 0
- Hepatotoxicity (association with vascular disease) [12]: 0
- Hepatotoxicity (chronic liver disease) [13]: 0
- Hepatotoxicity (steatosis) [14]: 1
- Hepatotoxicity (moderate) [15]: 13
- Hepatotoxicity (severe hepatitis) [16]: 0

Compound: O=c1[nH]c2ccccc2n1CCCN1CCN(C(c2ccccc2)c2ccccc2)CC1 [OXATOMIDE]
- Hepatotoxicity (benign tumour) [1]: 0
- Hepatotoxicity (time to onset) [2]: 10 days - 3 months
- Hepatotoxicity (cytolytic) [3]: 3
- Hepatotoxicity (granulomatous hepatitis) [4]: 0
- Hepatotoxicity (acute) [5]: 4
- Hepatotoxicity (malignant tumour) [6]: 0
- Hepatotoxicity (choleostasis) [7]: 2
- Hepatotoxicity (mechanism) [8]: Allergic
- Hepatotoxicity (acute) [9]: 0%
- Hepatotoxicity (moderate) [10]: 8.3%
- Hepatotoxicity (cirrhosis) [11]: 0
- Hepatotoxicity (association with vascular disease) [12]: 0
- Hepatotoxicity (chronic liver disease) [13]: 0
- Hepatotoxicity (steatosis) [14]: 0
- Hepatotoxicity (moderate) [15]: 2
- Hepatotoxicity (severe hepatitis) [16]: 0

Compound: CN(C)[C@@H]1C(O)=C(C(N)=O)C(=O)[C@@]2(O)C(O)=C3C(=O)c4c(O)cccc4[C@@](C)(O)[C@H]3[C@H](O)[C@@H]12 [OXYTETRACYCLINE]
- Hepatotoxicity (benign tumour) [1]: 0
- Hepatotoxicity (time to onset) [2]: 5 days - 3 weeks
- Hepatotoxicity (cytolytic) [3]: 0
- Hepatotoxicity (granulomatous hepatitis) [4]: 0
- Hepatotoxicity (acute) [5]: 2
- Hepatotoxicity (malignant tumour) [6]: 0
- Hepatotoxicity (choleostasis) [7]: 2
- Hepatotoxicity (mechanism) [8]: Dose-dependant
- Hepatotoxicity (acute) [9]: 0%
- Hepatotoxicity (moderate) [10]: 60%
- Hepatotoxicity (cirrhosis) [11]: 0
- Hepatotoxicity (association with vascular disease) [12]: 0
- Hepatotoxicity (chronic liver disease) [13]: 0
- Hepatotoxicity (steatosis) [14]: 4
- Hepatotoxicity (moderate) [15]: 1
- Hepatotoxicity (severe hepatitis) [16]: 1

Compound: CN1CCN(CCCN2c3ccccc3Sc3ccccc32)CC1 [PERAZINE]
- Hepatotoxicity (benign tumour) [1]: 0
- Hepatotoxicity (time to onset) [2]: 1.5 months - 1 year
- Hepatotoxicity (cytolytic) [3]: 2
- Hepatotoxicity (granulomatous hepatitis) [4]: 0
- Hepatotoxicity (acute) [5]: 3
- Hepatotoxicity (malignant tumour) [6]: 0
- Hepatotoxicity (choleostasis) [7]: 1
- Hepatotoxicity (mechanism) [8]: Dose-dependant
- Hepatotoxicity (acute) [9]: 0.3%
- Hepatotoxicity (moderate) [10]: 43%
- Hepatotoxicity (cirrhosis) [11]: 0
- Hepatotoxicity (association with vascular disease) [12]: 0
- Hepatotoxicity (chronic liver disease) [13]: 0
- Hepatotoxicity (steatosis) [14]: 0
- Hepatotoxicity (moderate) [15]: 5
- Hepatotoxicity (severe hepatitis) [16]: 0
